This is an account of results in patent publication US11925629B2, “Heterocyclic inhibitors of ERK1 and ERK2 and their use in the treatment of cancer” (Asana Biosciences, LLC, priority 2015, dated 2024).

One test concerns the target T1, ERK1 (Homo sapiens, UniProt P27361).
T1 construct: purchased Jubilant Biosys
As to the kind of experiment: ERK1 HTRF (biochemical) assay. The protocol: (§1) ERK1 and ERK2 HTRF (Biochemical) Assays
These assays employed a homogeneous time resolved fluorescence (HTRF) technique. […] The plate was incubated at room temperature for 60 min with shaking. […] The IC50 values (half maximal inhibitory concentration values) were subsequently determined using a sigmoidal dose-response curve (variable slope) in GraphPad Prism® 5 software.
(Time-resolved FRET reads energy transfer from a long-lived donor to a nearby acceptor.)

The target of the next test is T2, ERK2 (Homo sapiens, UniProt P28482).
T2 construct: purchased Jubilant Biosys
As to the kind of experiment: ERK2 HTRF (biochemical) assay. The method, then: as §1
These assays employed a homogeneous time resolved fluorescence (HTRF) technique. The compounds were serially diluted by half-log with concentrations ranging from 0.0005 to 10 uM in the assay buffer (50 mM Tris pH=7.5, 1 mM EGTA, 2 mM DTT, 10 mM MgCl2, 0.100 Tween-20) and 20 uL of substrate-ATP mix [1 uM Biotin-LC-Myelin Basic Protein (MBP) derivatized Peptide (Anaspec)-24 uM ATP (Sigma)] was added to each well of the assay plate. Then 10 uL of enzyme mix [25 nM ERK1 or ERK2 (Jubilant Biosys) in assay buffer] was added to each well. The plate was incubated at room temperature for 60 min with shaking. The HTRF mix [625 nM LANCER Ultra Europium-anti-phospho-MBP (Perkin Elmer) and 2 nM Phycolink® Streptavidin-Allophycocyanin (SA-APC) (Prozyme) in HTRF buffer (50 mM Tris-HCl pH=7.5, 100 mM NaCl, 0.1% BSA, 0.05% Tween20, 0.5 mM EDTA)] was prepared and 75 uL of this mix was added to the HTRF plate. After incubation for 60 min at room temperature, 10 uL of the reaction mixture was transferred to the HTRF assay plate and incubated for 45 min at room temperature with shaking. Plate was read using Pherastar in HTRF mode (excitation 337 nm, emission 665 & 620 nm). The IC50 values (half maximal inhibitory concentration values) were subsequently determined using a sigmoidal dose-response curve (variable slope) in GraphPad Prism® 5 software.

Test [1] relates to phosphorylation of RSK1(S380) (the downstream target of ERK1/2). As to the kind of experiment: Phospho-RSK1(S380) ELISA assay in HT-29 cells. The test is classed as cell-based, human. To be noted: read-out: Mechanistic Cell Assay RSK1 Phos HT29 IC50. Summed up:
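HT-29 colorectal carcinoma cells (B-RafV600E), plated overnight at 37° C./5% CO2, were treated with compound dilutions for 2 h. Lysates were analysed by phospho-RSK1(Ser380) sandwich ELISA with absorbance at 450 nm. IC50 came from a sigmoidal variable-slope dose-response fit.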
For orientation: In an ELISA, binding on a coated surface is turned into a signal by an enzyme label.

Test [2] deals with HCT116 (colorectal carcinoma, K Ras G13D) cells. The experiment in a line: Cell proliferation (Alamar Blue) assay, HCT116. The test is classed as cell-based, human. Put shortly: (§2)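 A 72 h exposure to compound (3-fold series, typically 0.0005 to 10 uM) of cells seeded at 5000/well precedes a 1-3 h Alamar Blue (1×) incubation. Growth inhibition is quantified by fluorescence and fitted to give IC50.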
In general terms: Resazurin is reduced to fluorescent resorufin, in cell work by metabolically active cells.

Test [3] relates to HT-29 (colorectal carcinoma, B-RafV600E) cells. As to the kind of experiment: Cell proliferation (Alamar Blue) assay, HT-29. To be noted: Homo sapiens, HT-29, HT29 cells. The test is classed as cell-based, human. Put shortly: as §2
Where [4] appears, read: Homo sapiens, HT-29, HT29 cells.
Setting [5] is: Homo sapiens, HCT-116, HCT116 cells.
Where [6] appears, read: Homo sapiens, HT-29, HT29 cells, phospho-RSK1(S380).

Where a name gives a salt, the structure may show the parent alone. Read-outs that look alike come from different tables or passages of the source.

T2 sequence (P28482 whole entry): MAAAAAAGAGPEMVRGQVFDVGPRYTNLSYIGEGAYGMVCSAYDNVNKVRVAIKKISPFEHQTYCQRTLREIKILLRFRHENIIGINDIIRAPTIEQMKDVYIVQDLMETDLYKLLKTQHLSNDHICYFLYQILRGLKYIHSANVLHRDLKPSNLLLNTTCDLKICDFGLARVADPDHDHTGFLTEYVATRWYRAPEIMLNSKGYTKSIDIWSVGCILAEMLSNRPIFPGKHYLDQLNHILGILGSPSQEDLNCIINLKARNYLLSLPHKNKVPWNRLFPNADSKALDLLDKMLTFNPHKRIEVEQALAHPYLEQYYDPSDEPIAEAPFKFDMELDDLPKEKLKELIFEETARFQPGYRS
T1 sequence (P27361 whole entry): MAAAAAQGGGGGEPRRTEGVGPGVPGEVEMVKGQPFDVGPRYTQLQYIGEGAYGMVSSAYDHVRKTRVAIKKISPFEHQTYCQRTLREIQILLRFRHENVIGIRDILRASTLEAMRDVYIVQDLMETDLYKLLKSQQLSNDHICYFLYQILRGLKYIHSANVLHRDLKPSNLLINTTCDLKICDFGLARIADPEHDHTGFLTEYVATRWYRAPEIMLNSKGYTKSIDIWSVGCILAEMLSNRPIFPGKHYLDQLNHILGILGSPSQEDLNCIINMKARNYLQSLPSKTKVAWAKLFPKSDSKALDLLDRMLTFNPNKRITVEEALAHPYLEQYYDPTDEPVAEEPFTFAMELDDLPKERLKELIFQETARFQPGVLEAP

For orientation: IC50 means the concentration needed to halve the response being measured. On to `Cc1cnc(NC2CCOCC2)nc1-n1cnc(C(=O)N[C@H](CN)c2cccc(Cl)c2)c1` [Compound #298, (S)—N-(2-Amino-1-(3-chlorophenyl)ethyl)-1-(5-methyl-2-((tetrahydro-2H-pyran-4-yl)amino)pyrimidin-4-yl)-1H-imidazole-4-carboxamide hydrochloride salt], for which the IC50 against ERK1 (HTRF biochemical assay) is less than 0.05 µM; against ERK2 (HTRF biochemical assay), not above 0.05 µM.

Take `Cc1cnc(N[C@H]2CCOC2)nc1-n1cnc(C(=O)NCc2ccc(C(F)(F)F)c(F)c2)c1` [Example 321, (S)-N-(3-fluoro-4-(trifluoromethyl)benzyl)-1-(5-methyl-2-((tetrahydrofuran-3-yl)amino)pyrimidin-4-yl)-1H-imidazole-4-carboxamide]: the IC50 against ERK1 (HTRF) is 0.05 to 0.1 µM; in test [1] (setting [4]), 0.5 to 2.5 µM; in test [2] (setting [5]), more than 2.5 µM; against ERK2 (HTRF), not above 0.05 µM; in test [3], more than 2.5 µM.

Turning to `Cc1cnc(N[C@H]2CCOC2)nc1-n1cnc(C(=O)NCc2cccc(C(F)(F)F)c2Cl)c1` [Example 317, (S)-N-(2-chloro-3-(trifluoromethyl)benzyl)-1-(5-methyl-2-((tetrahydrofuran-3-yl)amino)pyrimidin-4-yl)-1H-imidazole-4-carboxamide], the IC50 against ERK1 (HTRF) was 0.05 to 0.1 µM; in test [1] (setting [4]) it was more than 2.5 µM; in test [2] (setting [5]), more than 2.5 µM; against ERK2 (HTRF), not above 0.05 µM; in test [3], more than 2.5 µM.

Turning to “N-(1-(3-chlorophenyl)-2-hydroxypropyl)-1-(5-methyl-2-((tetrahydro-2H-pyran-4-yl)amino)pyrimidin-4-yl)-1H-imidazole-4-carboxamide (isomer #1) [Example 253]”, the IC50 against ERK1 (HTRF biochemical assay) was less than 0.05 µM; in test [1] (HT29 cells, phospho-RSK1(S380)) it was 0.5 to 2.5 µM; in test [2] (HCT116 cells) it was more than 2.5 µM; against ERK2 (HTRF biochemical assay) it was not above 0.05 µM.

As for `Cc1cnc(N[C@H]2CCOC2)nc1-n1cnc(C(=O)NCc2c(Cl)cccc2C(F)(F)F)c1` [Example 322, (S)-N-(2-chloro-6-(trifluoromethyl)benzyl)-1-(5-methyl-2-((tetrahydrofuran-3-yl)amino)pyrimidin-4-yl)-1H-imidazole-4-carboxamide], the IC50 against ERK1 (HTRF) was 0.5 to 2.5 µM; in test [1] (setting [4]), more than 2.5 µM; in test [2] (setting [5]), more than 2.5 µM; at ERK2 (HTRF), 0.5 to 2.5 µM; in test [3] it was more than 2.5 µM.

Take `CCC(=O)OCc1c(Cl)cccc1CNC(=O)c1cn(-c2nc(N[C@H]3CCOC3)ncc2C)cn1` [Example 346, (S)-2-chloro-6-((1-(5-methyl-2-((tetrahydrofuran-3-yl)amino)pyrimidin-4-yl)-1H-imidazole-4-carboxamido)-methyl)benzyl-propionate]: the IC50 at ERK1 (HTRF) is 0.05 to 0.1 µM; against ERK2 (HTRF), not above 0.05 µM.

In the case of `Cc1cccc(CNC(=O)c2cn(-c3nc(NC4CCOCC4)ncc3C)cn2)n1` [Example 279, 1-(5-methyl-2-((tetrahydro-2H-pyran-4-yl)amino)pyrimidin-4-yl)-N-((6-methylpyridin-2-yl)methyl)-1H-imidazole-4-carboxamide], the IC50 against ERK1 (HTRF biochemical assay) is less than 0.05 µM; in test [1] (setting [6]), 0.1 to 0.25 µM; in test [2] (setting [5]), 0.5 to 2.5 µM; on ERK2 (HTRF biochemical assay), not above 0.05 µM.

In the case of `Cc1cnc(Nc2ccc3c(c2)OC(F)(F)O3)cc1-n1cnc(C(=O)NC(CO)c2ccccc2)c1` (stereo not drawn) [Example 86, 1-(2-((2,2-difluoro-benzo[d][1,3]dioxol-5-yl)-amino)-5-methyl-pyridin-4-yl)-N-(2-hydroxy-1-phenyl-ethyl)-1H-imidazole-4-carboxamide], the IC50 on ERK1 (HTRF biochemical assay) is 0.05 to 0.1 µM; in test [2] (setting [5]), more than 2.5 µM; against ERK2 (HTRF biochemical assay), 0.05 to 0.1 µM; in test [3], more than 2.5 µM.

In the case of `Cc1cnc(N[C@H]2CCOC2)nc1-n1cnc(C(=O)NC(C)(C)c2cccc(Cl)c2CO)c1` [Example 347, (S)-N-(2-(3-chloro-2-(hydroxymethyl)-phenyl)propan-2-yl)-1-(5-methyl-2-((tetrahydrofuran-3-yl)amino)pyrimidin-4-yl)-1H-imidazole-4-carboxamide], the IC50 on ERK1 (HTRF) lay within 0.1 to 0.5 µM; on ERK2 (HTRF), 0.05 to 0.1 µM.

For the compound `Cc1cnc(Nc2ccc3c(c2)OCC3)nc1-n1ccc(C(=O)NC(CO)c2ccccc2)c1` (stereo not drawn) [Example 185, 1-(2-((2,3-dihydrobenzofuran-6-yl)amino)-5-methylpyrimidin-4-yl)-N-(2-hydroxy-1-phenylethyl)-1H-pyrrole-3-carboxamide], the IC50 in test [1] (setting [6]), in test [2] (setting [5]) and in test [3] was 0.25 to 0.5 µM in each case.

As to `O=C(NC(CO)c1cccc(Cl)c1)c1ccn(-c2cc(Nc3ccccc3)ncc2Cl)c1` (stereo not drawn) [Example 124, 1-(5-chloro-2-(phenyl-amino)pyridin-4-yl)-N-(1-(3-chlorophenyl)-2-hydroxy-ethyl)-1H-pyrrole-3-carboxamide], the figures for the IC50 in test [1] (setting [6]), in test [2] (setting [5]) and in test [3] were 0.5 to 2.5 µM, more than 2.5 µM and 0.5 to 2.5 µM, respectively.

For `Cc1cnc(Nc2ccc(F)cc2)nc1-n1cnc(C(=O)NC(CO)c2ccccc2)c1` (stereo not drawn) [Example 118, 1-(2-((4-fluoro-phenyl)amino)-5-methyl-pyrimidin-4-yl)-N-(2-hydroxy-1-phenylethyl)-1H-imidazole-4-carboxamide], the IC50 in test [1] (setting [6]) lay in the range of 0.25 to 0.5 µM; in test [2] (setting [5]), 0.5 to 2.5 µM; in test [3], 0.1 to 0.25 µM.

As to `Cc1cnc(NCc2cccnc2)cc1-n1ccc(C(=O)NC(CO)c2ccc(F)c(Cl)c2)c1` (stereo not drawn) [Example 193, N-(1-(3-chloro-4-fluorophenyl)-2-hydroxyethyl)-1-(5-methyl-2-((pyridin-3-ylmethyl)amino)pyridin-4-yl)-1H-pyrrole-3-carboxamide], the IC50 was 0.5 to 2.5 µM in test [1] (setting [6]), more than 2.5 µM in test [2] (setting [5]) and more than 2.5 µM in test [3].

Consider `Cc1cnc(Nc2ccc(C3CCNCC3)c(F)c2)nc1-n1ccc(C(=O)NC(CO)c2cccc(Cl)c2)c1` (stereo not drawn) [Example 216, N-(1-(3-chlorophenyl)-2-hydroxyethyl)-1-(2-((3-fluoro-4-(piperidin-4-yl)phenyl)amino)-5-methylpyrimidin-4-yl)-1H-pyrrole-3-carboxamide], for which the concentration for half-maximal inhibition (IC50) in test [1] (setting [6]) is 0.5 to 2.5 µM; in test [2] (setting [5]), 0.5 to 2.5 µM; in test [3], 0.25 to 0.5 µM.

On to `Cc1cnc(Nc2ccc3c(c2)OCO3)nc1-n1ccc(C(=O)N[C@H](CO)c2ccc(F)c(Cl)c2)c1` [Example 87, (S)-1-(2-(benzo[d][1,3]dioxol-5-ylamino)-5-methyl-pyrimidin-4-yl)-N-(1-(3-chloro-4-fluorophenyl)-2-hydroxy-ethyl)-1H-pyrrole-3-carboxamide], for which the IC50 in test [1] (setting [6]) was in the range of 0.1 to 0.25 µM; in test [2] (setting [5]) it was 0.5 to 2.5 µM; in test [3] it was 0.25 to 0.5 µM.

For the compound `Cc1cnc(Nc2ccc(F)c(C(=O)N3CCN(C)CC3)c2)nc1-n1ccc(C(=O)NC(CO)c2cccc(Cl)c2)c1` (stereo not drawn) [Example 179, N-(1-(3-chlorophenyl)-2-hydroxyethyl)-1-(2-((4-fluoro-3-(4-methylpiperazine-1-carbonyl)phenyl)amino)-5-methylpyrimidin-4-yl)-1H-pyrrole-3-carboxamide], the IC50 in test [1] (setting [6]), in test [2] (setting [5]) and in test [3] was 0.5 to 2.5 µM each time.

`Cc1cnc(Nc2ccc(F)cc2)nc1-n1cc(C(=O)NC(CO)c2ccccc2)nc1C` (stereo not drawn) [Cmpd 153, 1-(2-((4-fluoro-phenyl)amino)-5-methyl-pyrimidin-4-yl)-N-(2-hydroxy-1-phenylethyl)-2-methyl-1H-imidazole-4-carboxamide]: the IC50 in test [1] (setting [6]), in test [2] (setting [5]) and in test [3] was more than 2.5 µM each time.

For `Cc1cnc(NC2CCOCC2)nc1-n1cnc(C(=O)NCc2cccc(Cl)c2F)c1` [Example 309, N-(3-chloro-2-fluorobenzyl)-1-(5-methyl-2-((tetrahydro-2H-pyran-4-yl)amino)pyrimidin-4-yl)-1H-imidazole-4-carboxamide], the values for the IC50 in test [1] (setting [4]), in test [2] (setting [5]) and in test [3] were 0.5 to 2.5 µM, 0.5 to 2.5 µM and 0.25 to 0.5 µM, respectively.
